According to article PMC8238065, “Prodrug-based nano-delivery strategy to improve the antitumor ability of carboplatin in vivo and in vitro” (Drug Delivery, 2021):

Experiments:
H460 cells = test: MTT cytotoxicity, H460 cells; type: cell-based; details: 500 μM, 72 h
Procedure: The NSCLC A549 and H460 cells were incubated in 1640 medium containing 10% fetal bovine serum albumin, and these cells were stored in a humidified environment of 37 °C and 5% carbon dioxide.
In order to investigate the cytotoxicity of PEG-CAR-C16 micelles, the cell inhibition rates of A549 and H460 cells were determined by the MTT. Primarily, A549 and H460 cell lines were respectively cultured in 1640 culture medium, then transferred into a 96-well plate and incubated for 24 h under the condition of 37 °C, 5% CO2. Then, CAR and PEG-CAR-C16 micelles solution with different concentrations (15–500 μM) were added into the 96-well plate and incubated for 24, 48, and 72 h, respectively. After added with 10 μL of MTT solution to each well, the cells were incubated at 37 °C for 4 h again. Finally, the solution was removed, 100 μL of DMSO was then added to dissolve the produced formazan crystals and the […] were recorded by microplate reader. The cytotoxicity of PEG-CAR-C16 micelles could be expressed by cell inhibition rate.

H460 tumor = test: In vivo antitumor experiment in H460 tumor-bearing nude mice; details: tail vein injection twice a week for two weeks, CAR 0.75 and 1.5 mg·kg^−1, equivalent PEG-CAR-C16 5.5 and 11.0 mg·kg^−1
Procedure: The female nude mice models (5–6 weeks old, 18–22 g) used in the experiment were purchased from Unilever (London, UK), and the experiment was conducted in accordance with the principle of protection of experimental animals. To establish animal model of NSCLC, 0.2 mL of H460 cells with concentration density about 1.0 × 10^7/mL were inoculated to the left axilla of the mice. The volume of tumors was measured and recorded using a vernier caliper.
When the average tumor volume of nude mice inoculated with H460 cells grown to about 100 mm^3, the mice were randomly divided into […] (n = 6) including normal saline group (I, NS), CAR group (II, 0.75 mg·kg^−1), equivalent PEG-CAR-C16 group (IV, 5.5 mg·kg^−1), CAR group (III, 1.5 mg·kg^−1), equivalent PEG-CAR-C16 group (V, 11.0 mg·kg^−1). The mice in each group were given drugs by tail vein injection twice a week for two weeks. The volume of tumor was measured every two days and calculated according to the long diameter a and the short diameter b. The tumor inhibition rate is expressed as follows: tumor volume (Vt)=a×b^2/2.

[1] = In vivo pharmacokinetics of Pt after intravenous injection (ICP-MS); design: species or system Wistar rats; details: Pt in rats, equivalent CAR dose 1.5 mg·kg^−1
Procedure: To conduct the pharmacokinetic tests, six female Wistar rats (Harlan, Israel, 200 ± 20 g) were randomly administered into two groups primarily. The CAR solution was prepared by dissolving CAR in 5% glucose solution, and the PEG-CAR-C16 polymer micelles were prepared by hydrating the thin film using 5% glucose solution during the micelle formation. Then CAR and PEG-CAR-C16 polymer micelles (the equivalent CAR does was 1.5 mg·kg^−1) were injected intravenously. After collected from the treated […] within a specified time point, the blood samples were centrifuged at 3000 rpm for 10 min, and then the centrifuged samples were frozen at −20 °C for further use. All the blood samples were processed by microwave digestion and then the Pt concentration was examined by using inductively coupled plasma mass spectrometry (ICP-MS). The representative pharmacokinetic parameters were calculated by DAS2.0.

Q: What does the source list for `N.N.O=C([O-])C1(C(=O)[O-])CCC1.[Pt+2]` [CAR, Carboplatin]?
A: cell viability rate (H460 cells): 51.6%; tumor volume growth / tumor inhibition effect (H460 tumor): could control the growth of tumor volume effectively; AUC0–∞ [1]: 4.84 ± 1.58 mg·L^–1·h; CL [1]: 0.57 ± 0.11 L·h^–1·kg^–1; MRT0–∞ [1]: 4.72 ± 0.91 h; Vd [1]: 0.66 ± 0.15 L·kg^–1; t1/2 [1]: 1.90 ± 1.91 h
